Assay results as given in PubChem BioAssay (NCI).
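Step 1: Grow cells in 96-well plates. Step 2: Expose to compound for 48 hours at 5 concentrations. Step 3: Interpolate endpoints linearly; if unreached, use highest concentration. TGI is the concentration that stops growth completely.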

What was measured:
Experiment in all cases: NCI tumour cell line growth inhibition, 48 h
[1] = test system: NCI-H226 lung
[2] = test system: HT29 colon
[3] = test system: SF-539 CNS
[4] = test system: SNB-19 CNS
[5] = test system: HCT-116 colon
[6] = test system: SK-OV-3 ovarian
[7] = test system: MDA-MB-435
[8] = test system: OVCAR-4 ovarian
[9] = test system: PC-3 prostate
[10] = test system: UACC-62 melanoma
[11] = test system: A498 renal
[12] = test system: ACHN renal
[13] = test system: HOP-92 NSCLC
[14] = test system: SNB-75 CNS
[15] = test system: M14 melanoma
[16] = test system: BT-549 breast
[17] = test system: NCI/ADR-RES ovarian
[18] = test system: TK-10 renal
[19] = test system: OVCAR-8 ovarian
[20] = test system: SK-MEL-2 melanoma

| Compound | TGI [1] [µM] | TGI [2] [µM] | TGI [3] [µM] | TGI [4] [µM] | TGI [5] [µM] | TGI [6] [µM] | TGI [7] [µM] | TGI [8] [µM] | TGI [9] [µM] | TGI [10] [µM] | TGI [11] [µM] | TGI [12] [µM] | TGI [13] [µM] | TGI [14] [µM] | TGI [15] [µM] | TGI [16] [µM] | TGI [17] [µM] | TGI [18] [µM] | TGI [19] [µM] | TGI [20] [µM] |
| --- | --- | --- | --- | --- | --- | --- | --- | --- | --- | --- | --- | --- | --- | --- | --- | --- | --- | --- | --- | --- |
| CC1=C[C@@H]2Cc3nc4cc(Cl)ccc4c(N)c3[C@H](C1)C2 | 32.5 | 13.2 | 25.3 | 24 | 14.5 | 24.3 | 25.8 | 18.2 | 26.9 | 31.5 | 23.4 | 23.1 | 10.8 | 17.9 | 18.1 | 31.7 | 25 | 19.5 | 38.9 | 29.7 |
| NS(=O)(=O)c1cc2c(cc1Cl)NC(CCC(=O)O)=NS2(=O)=O | > 100 | > 100 | > 100 | > 100 | > 100 | > 100 | > 100 | > 100 | > 100 | > 100 | > 100 | > 100 | > 100 | > 100 | > 100 | > 100 | > 100 | > 100 | > 100 | > 100 |
| COC(=O)C1CCC(=O)N1C(c1ccc(OC)cc1)c1ccc2c(c1)OCO2 (stereo not given) | > 100 | > 100 | 98.6 | > 100 | > 100 | > 100 | 28.7 | > 100 | > 100 | > 100 | > 100 | > 100 | > 100 | 78.9 | > 100 | > 100 | > 100 | > 100 | > 100 | > 100 |
| [O-][n+]1ccccc1Sc1nc(Sc2cccc[n+]2[O-])nc(Sc2cccc[n+]2[O-])n1 | 6.78 | 2.61 | 4.06 | 26.1 | 2.53 | 18.6 | 4.15 | 4.74 | 2.19 | 3.67 | 8.37 | 4.06 | 3.03 | 18.6 | 3.06 | 4.96 | 29.1 | 3.82 | 1.99 | 3.71 |
| Cc1cn(C2CC(O)C(CO)O2)c(=O)[nH]c1=O (stereo not given) | > 5000 | > 5000 | > 5000 | > 2850 | > 4240 | > 4890 | > 5000 | > 4640 | > 5000 | 3680 | > 5000 | > 5000 | > 4830 | > 4500 | > 5000 | > 5000 | > 5000 | > 5000 | 4960 | > 5000 |
| O=C1NCCN1/N=C/c1c(Cl)n(-c2ccccc2)c2ccccc12 | 54 | 35.3 | 33.7 | 56.9 | 45.6 | > 100 | 33.1 | 76.2 | 98.8 | 41.5 | 45.8 | 62 | 49.7 | 55 | 36.8 | 35.9 | 49.6 | 43.6 | 44.8 | 66.4 |
| C=CCSc1nnc2cc(CN3CCCC3)c(-c3ccc(Cl)cc3)nn12 | 26.7 | 32.5 | 36.2 | 71.7 | 28.5 | 55.5 | 41.7 | 48 | 35.3 | 27.7 | 35.9 | 38.3 | 34.3 | 39.2 | 34.7 | 42.4 | 56.3 | 43.7 | 57.1 | 34.5 |
| CCOC(=O)c1nc2c(nc1C(=O)OCC)C(=O)c1ccccc1C2=O | 1.5 | 9.06 | 1.71 | 3.59 | 4.25 | 5.97 | 0.804 | 1.95 | 11.2 | 0.956 | 4.38 | 2.02 | 33.6 | 2.12 | 1.55 | 2.76 | > 35.1 | 8.83 | 6.56 | 1.5 |
| CC1(C)CCCC2OC2CCC(C)(C)C1=O (stereo not given) | > 100 | > 100 | > 100 | > 100 | > 100 | > 100 | > 100 | > 100 | > 100 | > 100 | > 100 | > 100 | > 100 | > 100 | > 100 | > 100 | > 100 | > 100 | > 100 | > 100 |
| CCCCC(C(=O)NCCNC(=O)CCC(=O)N(C)O)C(=O)NCCNC(=O)CCC(=O)N(C)O | > 100 | > 100 | > 100 | > 100 | > 100 | > 100 | > 100 | > 100 | > 100 | > 100 | > 100 | > 100 | > 100 | > 100 | > 100 | > 100 | > 100 | > 100 | > 100 | > 100 |
| Cc1ccc(-c2[nH]c(=O)n(C3OC(CO)C(O)C(O)C3O)c(=O)c2C#N)cc1 (stereo not given) | > 100 | > 100 | > 100 | > 100 | > 100 | > 100 | > 100 | > 100 | > 100 | > 100 | > 100 | > 100 | > 100 | > 100 | > 100 | > 100 | > 100 | > 100 | > 100 | > 100 |
| CCOC(=O)c1cn2c(nc1=O)N[C@H]1CCCC[C@@H]12 | > 100 | > 100 | > 100 | > 100 | > 100 | > 100 | > 100 | > 100 | > 100 | > 100 | > 100 | > 100 | > 100 | > 100 | > 100 | > 100 | > 100 | > 100 | > 100 | > 100 |
| O=C(O)/C=C(/C(=O)O)C12CCN3CC4=CCOC5CC(=O)NC1C5C4CC32 (stereo not given) | > 100 | > 100 | > 100 | > 100 | > 100 | > 100 | > 100 | > 100 | > 100 | > 100 | > 100 | > 100 | > 100 | > 100 | > 100 | > 100 | > 100 | > 100 | > 100 | > 100 |
| CC(=O)Nc1nc(C#N)[nH]c1C#N | > 100 | > 100 | > 100 | > 100 | > 100 | > 100 | > 100 | > 100 | > 100 | > 100 | > 100 | > 100 | > 100 | > 100 | > 100 | > 100 | > 100 | > 100 | > 100 | > 100 |
| N=C(N)SCc1ccc2c(c1)Sc1ccccc1O2 | 31.1 | 8.54 | 7.79 | 30.6 | 22.3 | 27 | 19.1 | 18.1 | 16.5 | 19.7 | 52.3 | 16.9 | 26.8 | 18.2 | 7.55 | 16.1 | 34.6 | 14.1 | 32.5 | 15.6 |
| O=c1[nH]c(Nc2nc3ccccc3[nH]2)nc(O)c1-c1ccccc1 | > 100 | > 100 | > 100 | > 100 | > 100 | > 100 | > 100 | > 100 | > 100 | > 100 | > 100 | > 100 | > 100 | > 100 | > 100 | > 100 | > 100 | > 100 | > 100 | > 100 |
| NS(=O)(=O)c1cc(Cl)c(NC(=S)NC(=O)Nc2ccc(Cl)c(Cl)c2)c(Cl)c1 | > 100 | > 100 | 90.7 | > 100 | > 100 | > 100 | > 100 | > 100 | > 100 | 90.2 | 84.4 | > 100 | > 100 | > 100 | > 100 | > 100 | > 100 | > 100 | > 100 | 90.6 |
| c1c[nH]c(-c2ccc(-c3ccc[nH]3)c3nsnc23)c1 | > 100 | > 37.8 | > 76.8 | > 100 | > 59.8 | > 100 | > 70.9 | > 16.5 | > 100 | > 100 | > 100 | > 86.8 | > 100 | > 85.8 | > 63 | > 100 | > 93.2 | > 100 | > 60.4 | > 100 |
